Data reported in article PMC12594208, “SLC25A45 is required for mitochondrial uptake of methylated amino acids and de novo carnitine biosynthesis” (Molecular Cell, 2025).

Columns and labels:
SLC25A45-8xHis [1] = biological target: T1, SLC25A45-8xHis (Homo sapiens, UniProt Q8N413); assay: uptake by isolated mitochondria, LC-MS; assay type: biochemical; conditions: 10 μM; pH 7.25, room temperature; labelled compound
T1 construct: SLC25A45-Xa-8xHis, tag kept; in mitochondria isolated from FreeStyle 293-F cells
T1 sequence (Q8N413 1-288): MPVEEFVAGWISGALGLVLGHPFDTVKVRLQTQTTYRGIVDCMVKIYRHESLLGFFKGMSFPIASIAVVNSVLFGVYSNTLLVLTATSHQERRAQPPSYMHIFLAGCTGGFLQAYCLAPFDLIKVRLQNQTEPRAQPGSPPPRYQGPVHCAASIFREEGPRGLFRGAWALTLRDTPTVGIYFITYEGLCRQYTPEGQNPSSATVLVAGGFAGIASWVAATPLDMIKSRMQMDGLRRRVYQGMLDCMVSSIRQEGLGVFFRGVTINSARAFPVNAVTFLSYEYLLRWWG

purified human SLC25A45 = biological target: T2, purified human SLC25A45 (Homo sapiens, UniProt Q8N413); assay: nanoDSF thermostability shift; assay type: binding; conditions: 10 mM compound, 20 mM HEPES pH 7.0, 50 mM NaCl, cardiolipin/LMNG, 25-95 °C at 4 °C per min
T2 construct: codon-optimised; N-terminal extension GKPRTSPK (residues 14-21 of human oxoglutarate carrier), eight-His tag and Factor Xa site, Factor Xa cleaved; from S. cerevisiae BJ2168 mitochondria; 33,118 Da; in lauryl maltose neopentyl glycol / tetraoleoyl cardiolipin
T2 sequence (Q8N413 1-288): T1 sequence (Q8N413 1-288)

SLC25A45-8xHis [2] = biological target: T1, SLC25A45-8xHis; assay: competition of [2H9]-TML uptake by isolated mitochondria, LC-MS; assay type: biochemical; conditions: 10 mM unlabelled TML against 10 μM [2H9]-TML, 10 min, pH 7.25, room temperature

## CN(C)C(=N)NCCC[C@H](N)C(=O)O [[^2H6]-ADMA]
SLC25A45-8xHis [1]
  uptake by isolated mitochondria, LC-MS: SLC25A45 was also required for the mitochondrial uptake of the deuterium-labeled dimethylarginine isomers

## CN=C(NC)NCCC[C@H](N)C(=O)O [[^2H6]-SDMA]
SLC25A45-8xHis [1]
  uptake by isolated mitochondria, LC-MS: SLC25A45 was also required for the mitochondrial uptake of the deuterium-labeled dimethylarginine isomers

## C[N+](C)(C)CCCC[C@H](N)C(=O)O [trimethyllysine]
Purified human SLC25A45
  ΔTm: 3.4 °C
SLC25A45-8xHis [2]
  competition of [2H9]-TML uptake by isolated mitochondria, LC-MS: mitochondrial import of [^2H9]-TML was abolished by co-incubation with excess unlabeled trimethyllysine

## dimethylarginine
Purified human SLC25A45; isomer not told
  ΔTm: 7.5 °C
